{
  "source": "patent US20240350493A1",
  "about": "(Kadmon Corporation, LLC, priority 2022, published 2024)",
  "key": {"UGT1A9": {"target": "UGT1A9 (Homo sapiens, UniProt O60656)", "sequence (O60656 26-530)": "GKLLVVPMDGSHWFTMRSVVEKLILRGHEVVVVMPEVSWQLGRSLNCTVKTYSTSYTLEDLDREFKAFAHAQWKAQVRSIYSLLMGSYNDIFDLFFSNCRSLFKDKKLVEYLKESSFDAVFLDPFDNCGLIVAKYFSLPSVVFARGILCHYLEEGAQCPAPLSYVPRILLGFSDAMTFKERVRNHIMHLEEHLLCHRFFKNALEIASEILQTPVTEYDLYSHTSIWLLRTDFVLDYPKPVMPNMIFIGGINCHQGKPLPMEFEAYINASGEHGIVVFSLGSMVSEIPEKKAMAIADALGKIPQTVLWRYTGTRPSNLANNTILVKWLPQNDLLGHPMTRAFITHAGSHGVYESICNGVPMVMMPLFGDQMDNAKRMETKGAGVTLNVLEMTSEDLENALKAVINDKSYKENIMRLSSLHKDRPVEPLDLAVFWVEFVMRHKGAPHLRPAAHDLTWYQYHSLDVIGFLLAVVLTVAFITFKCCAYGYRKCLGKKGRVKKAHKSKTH", "assay": "enzyme inhibition, in vitro", "type": "in vitro ADME"}, "[1]": {"assay": "pharmacokinetics in healthy subjects (label)", "type": "in vivo, human"}, "rats [2]": {"test_system": "rats", "assay": "combined male and female rat fertility study", "type": "in vivo", "source_text": "In a combined male and female rat fertility study, belumosudil-treated male animals were mated with untreated females, or untreated males were mated with belumosudil-treated females."}, "[3]": {"test_system": "human peripheral blood lymphocytes (HPBL)", "assay": "in vitro chromosome aberration assay", "type": "cell-based"}, "pH-dependent solubility": {"assay": "pH-dependent solubility", "type": "physicochemical"}, "CYP2D6 [4]": {"target": "T1, CYP2D6 (Homo sapiens, UniProt P10635)", "T1 sequence (P10635 whole entry)": "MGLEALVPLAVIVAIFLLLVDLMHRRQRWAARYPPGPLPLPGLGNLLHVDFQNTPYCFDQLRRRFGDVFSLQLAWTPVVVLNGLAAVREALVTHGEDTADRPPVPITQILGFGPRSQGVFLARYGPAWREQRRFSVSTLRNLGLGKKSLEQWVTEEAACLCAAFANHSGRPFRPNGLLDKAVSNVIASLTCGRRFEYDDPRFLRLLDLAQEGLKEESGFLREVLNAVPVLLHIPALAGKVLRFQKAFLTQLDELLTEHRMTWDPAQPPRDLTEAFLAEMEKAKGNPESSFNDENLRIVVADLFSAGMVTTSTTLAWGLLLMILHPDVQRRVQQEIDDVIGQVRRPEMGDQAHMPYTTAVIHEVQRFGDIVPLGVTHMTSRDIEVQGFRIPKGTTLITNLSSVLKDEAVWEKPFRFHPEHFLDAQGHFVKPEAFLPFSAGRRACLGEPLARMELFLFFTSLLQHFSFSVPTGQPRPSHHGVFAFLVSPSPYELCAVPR", "assay": "enzyme inhibition, in vitro", "type": "in vitro ADME"}, "pregnant rabbits": {"test_system": "pregnant rabbits", "assay": "embryo-fetal developmental study in rabbits", "conditions": "rabbit"}, "OATPIB1": {"target": "OATPIB1 (Homo sapiens, UniProt Q9Y6L6)", "sequence (Q9Y6L6 whole entry)": "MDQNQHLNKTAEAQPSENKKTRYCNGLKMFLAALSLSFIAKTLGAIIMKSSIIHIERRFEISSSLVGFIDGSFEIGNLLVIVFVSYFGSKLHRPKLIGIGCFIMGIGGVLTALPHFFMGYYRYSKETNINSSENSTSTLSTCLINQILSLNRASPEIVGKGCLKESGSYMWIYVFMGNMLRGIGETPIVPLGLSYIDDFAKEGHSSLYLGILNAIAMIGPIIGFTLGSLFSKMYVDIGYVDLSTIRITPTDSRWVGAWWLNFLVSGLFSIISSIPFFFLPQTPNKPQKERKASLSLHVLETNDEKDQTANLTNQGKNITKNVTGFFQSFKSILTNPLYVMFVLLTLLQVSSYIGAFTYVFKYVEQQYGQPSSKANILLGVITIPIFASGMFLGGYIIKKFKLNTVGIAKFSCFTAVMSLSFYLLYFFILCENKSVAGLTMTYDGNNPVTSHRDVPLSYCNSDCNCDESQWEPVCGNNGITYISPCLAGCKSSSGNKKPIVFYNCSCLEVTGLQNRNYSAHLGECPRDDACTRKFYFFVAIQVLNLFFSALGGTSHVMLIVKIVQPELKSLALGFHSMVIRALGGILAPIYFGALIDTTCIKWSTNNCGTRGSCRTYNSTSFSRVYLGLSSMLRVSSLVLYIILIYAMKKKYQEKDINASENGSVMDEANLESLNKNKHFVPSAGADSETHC", "assay": "transporter inhibition, in vitro", "type": "in vitro ADME", "conditions": "at clinically relevant concentrations"}, "CYP2C19": {"target": "CYP2C19 (Homo sapiens, UniProt P33261)", "sequence (P33261 whole entry)": "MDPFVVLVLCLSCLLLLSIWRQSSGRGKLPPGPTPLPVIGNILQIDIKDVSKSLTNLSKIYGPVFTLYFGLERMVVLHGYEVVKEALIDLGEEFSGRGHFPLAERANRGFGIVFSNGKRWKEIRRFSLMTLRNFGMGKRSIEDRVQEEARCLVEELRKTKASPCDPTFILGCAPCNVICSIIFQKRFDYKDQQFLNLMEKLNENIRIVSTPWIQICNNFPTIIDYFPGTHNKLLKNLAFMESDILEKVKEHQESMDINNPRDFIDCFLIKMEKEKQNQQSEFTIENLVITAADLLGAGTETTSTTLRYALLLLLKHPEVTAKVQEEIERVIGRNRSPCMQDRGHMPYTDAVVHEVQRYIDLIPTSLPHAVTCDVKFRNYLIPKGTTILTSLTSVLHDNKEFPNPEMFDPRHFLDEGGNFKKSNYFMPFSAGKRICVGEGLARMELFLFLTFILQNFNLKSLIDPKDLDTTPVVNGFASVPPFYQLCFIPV", "assay": "incubations with recombinant enzymes", "type": "in vitro ADME"}, "rats [5]": {"test_system": "rats", "assay": "general toxicology studies, rats", "type": "in vivo, rat"}, "P-gp [6]": {"target": "T2, P-gp (Homo sapiens, UniProt P08183)", "T2 sequence (P08183 whole entry)": "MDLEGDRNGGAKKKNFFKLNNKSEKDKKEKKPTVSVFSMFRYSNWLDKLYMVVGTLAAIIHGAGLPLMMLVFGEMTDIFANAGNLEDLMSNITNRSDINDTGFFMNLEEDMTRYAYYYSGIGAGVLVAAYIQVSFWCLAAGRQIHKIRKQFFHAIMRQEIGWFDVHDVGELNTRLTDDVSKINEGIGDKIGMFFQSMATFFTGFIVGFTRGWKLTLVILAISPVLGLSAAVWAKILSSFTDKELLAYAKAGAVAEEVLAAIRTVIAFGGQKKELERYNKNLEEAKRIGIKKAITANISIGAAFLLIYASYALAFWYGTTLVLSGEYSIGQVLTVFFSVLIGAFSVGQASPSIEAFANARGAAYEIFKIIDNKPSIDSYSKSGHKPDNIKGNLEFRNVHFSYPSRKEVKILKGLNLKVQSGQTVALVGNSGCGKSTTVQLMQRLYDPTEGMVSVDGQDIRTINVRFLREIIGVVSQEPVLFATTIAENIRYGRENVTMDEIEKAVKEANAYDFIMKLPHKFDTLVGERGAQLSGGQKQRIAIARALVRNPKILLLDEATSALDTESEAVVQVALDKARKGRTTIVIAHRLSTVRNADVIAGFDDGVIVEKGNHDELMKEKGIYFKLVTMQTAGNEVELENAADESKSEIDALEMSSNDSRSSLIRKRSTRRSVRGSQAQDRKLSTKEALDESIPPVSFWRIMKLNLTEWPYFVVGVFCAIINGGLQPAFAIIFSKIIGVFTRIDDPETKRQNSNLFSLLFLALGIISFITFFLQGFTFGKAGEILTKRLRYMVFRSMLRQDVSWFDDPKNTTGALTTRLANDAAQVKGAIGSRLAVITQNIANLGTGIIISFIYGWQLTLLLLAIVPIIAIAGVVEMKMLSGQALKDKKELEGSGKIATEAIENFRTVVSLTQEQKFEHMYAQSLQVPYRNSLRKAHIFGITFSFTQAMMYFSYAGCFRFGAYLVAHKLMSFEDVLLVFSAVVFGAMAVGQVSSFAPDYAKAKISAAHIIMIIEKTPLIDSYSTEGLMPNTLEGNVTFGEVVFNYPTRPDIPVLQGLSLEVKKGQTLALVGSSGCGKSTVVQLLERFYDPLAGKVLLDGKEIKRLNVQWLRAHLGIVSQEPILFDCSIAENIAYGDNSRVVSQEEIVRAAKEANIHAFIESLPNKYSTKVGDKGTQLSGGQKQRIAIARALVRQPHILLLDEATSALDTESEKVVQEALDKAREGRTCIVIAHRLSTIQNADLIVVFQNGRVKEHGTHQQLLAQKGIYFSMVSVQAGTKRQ", "assay": "transporter substrate, in vitro", "type": "in vitro ADME"}, "CYP2C8": {"target": "CYP2C8 (Homo sapiens, UniProt P10632)", "sequence (P10632 whole entry)": "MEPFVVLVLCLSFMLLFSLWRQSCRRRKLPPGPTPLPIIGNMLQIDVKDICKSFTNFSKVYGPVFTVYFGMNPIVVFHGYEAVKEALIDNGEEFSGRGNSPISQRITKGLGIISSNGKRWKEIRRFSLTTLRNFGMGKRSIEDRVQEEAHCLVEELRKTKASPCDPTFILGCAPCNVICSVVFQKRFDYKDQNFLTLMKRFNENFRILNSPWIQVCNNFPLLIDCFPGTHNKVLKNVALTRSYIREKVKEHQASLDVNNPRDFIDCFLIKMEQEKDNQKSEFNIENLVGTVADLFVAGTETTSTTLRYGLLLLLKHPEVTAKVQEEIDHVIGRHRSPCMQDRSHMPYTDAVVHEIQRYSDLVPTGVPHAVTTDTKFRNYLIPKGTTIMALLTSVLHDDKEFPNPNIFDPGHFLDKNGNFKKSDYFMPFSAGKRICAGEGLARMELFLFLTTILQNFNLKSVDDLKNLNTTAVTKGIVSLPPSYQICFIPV", "assay": "incubations with recombinant enzymes", "type": "in vitro ADME"}, "CYP3A4": {"target": "CYP3A4 (Homo sapiens, UniProt P08684)", "sequence (P08684 whole entry)": "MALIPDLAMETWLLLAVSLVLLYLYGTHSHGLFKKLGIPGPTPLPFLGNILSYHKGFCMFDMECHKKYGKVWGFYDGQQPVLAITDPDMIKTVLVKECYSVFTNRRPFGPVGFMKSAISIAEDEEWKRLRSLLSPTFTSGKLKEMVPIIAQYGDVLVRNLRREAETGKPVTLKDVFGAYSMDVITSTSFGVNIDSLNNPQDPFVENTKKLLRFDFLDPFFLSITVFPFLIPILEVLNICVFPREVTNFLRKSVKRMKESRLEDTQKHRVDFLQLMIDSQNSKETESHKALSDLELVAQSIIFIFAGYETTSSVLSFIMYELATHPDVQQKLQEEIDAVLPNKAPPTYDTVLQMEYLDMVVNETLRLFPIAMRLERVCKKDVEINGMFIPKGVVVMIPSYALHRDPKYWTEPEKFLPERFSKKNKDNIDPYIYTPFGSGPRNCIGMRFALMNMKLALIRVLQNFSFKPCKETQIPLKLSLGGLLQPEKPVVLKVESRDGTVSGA", "assay": "incubations with recombinant enzymes", "type": "in vitro ADME"}, "P-gp [7]": {"target": "T2, P-gp", "assay": "transporter inhibition, in vitro", "type": "in vitro ADME", "conditions": "at clinically relevant concentrations"}, "healthy male subjects": {"test_system": "healthy male subjects", "assay": "phase I drug-drug interaction study, safety and tolerability (Example 1)", "type": "in vivo, human", "source_text": "This was a single center, non-randomized, DDI study in 35 (Part 1) and 38 (Part 2) healthy males. The key inclusion criterion was males aged 18 to 55 years (inclusive). […] In Part 2, co-administration with omeprazole was studied. The study design is illustrated in FIG. 1.\nAt least a 2-to 8-day washout occurred between each period to account for a minimum of 5 half-lives of the active moieties dosed in the preceding period.\nSafety and tolerability of belumosudil was the secondary endpoint of the study and was evaluated by AEs, vital signs, physical examinations, electrocardiograms (ECGs), and clinical laboratory tests. All subjects who received at least one dose of belumosudil or perpetrator compound were included in the safety population."}, "dogs": {"test_system": "dogs", "assay": "general toxicology studies, dogs", "type": "in vivo, dog"}, "CYP2D6 [8]": {"target": "T1, CYP2D6", "assay": "incubations with recombinant enzymes", "type": "in vitro ADME"}, "CYP1A2 [9]": {"target": "T3, CYP1A2 (Homo sapiens, UniProt P05177)", "T3 sequence (P05177 whole entry)": "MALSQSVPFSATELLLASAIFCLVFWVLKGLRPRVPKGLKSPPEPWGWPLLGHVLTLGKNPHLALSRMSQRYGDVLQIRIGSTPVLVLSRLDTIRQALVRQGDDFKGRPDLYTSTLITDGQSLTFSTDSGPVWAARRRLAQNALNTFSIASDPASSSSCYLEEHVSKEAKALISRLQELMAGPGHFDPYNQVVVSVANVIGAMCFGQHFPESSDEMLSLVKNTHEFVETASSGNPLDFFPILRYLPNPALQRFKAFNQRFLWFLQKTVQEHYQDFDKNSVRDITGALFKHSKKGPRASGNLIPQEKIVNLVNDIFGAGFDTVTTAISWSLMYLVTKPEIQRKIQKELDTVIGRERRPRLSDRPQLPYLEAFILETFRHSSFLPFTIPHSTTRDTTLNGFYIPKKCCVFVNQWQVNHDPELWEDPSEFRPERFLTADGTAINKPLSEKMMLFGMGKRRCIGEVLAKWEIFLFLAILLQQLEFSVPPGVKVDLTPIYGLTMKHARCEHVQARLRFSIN", "assay": "enzyme inhibition, in vitro", "type": "in vitro ADME"}, "[10]": {"assay": "previously conducted solubility studies", "type": "physicochemical", "experimental": "Rabeprazole, a strong PPI, suppresses the secretion of gastric acid by noncompetitive blockade of H+/K+-adenosine triphosphatase at the secretory surface of gastric parietal cells, thereby raising the intra-gastric pH above 3.0. The recommended starting dose of sodium rabeprazole for subjects with GI ulcers and GERD is 20 mg per day and for subjects with hypersecretory syndromes is 60 mg per day (Accord-UK Ltd. Summary of Product Characteristics: Rabeprazole 20 mg Gastro-resistant Tablets, available at www.medicines.org.uk/emc/medicine/27143/SPC/Rabeprazole+20 mg+Gastro-resistant+Tablets/. Updated 16 Apr. 2020. Accessed 12 Aug. 2021)."}, "CYP1A2 [11]": {"target": "T3, CYP1A2", "assay": "incubations with recombinant enzymes", "type": "in vitro ADME"}, "[12]": {"conditions": "single oral dose of radiolabeled belumosudil"}},
  "note": "“Also recorded” adds a separate entry of the source.",
  "data": [
    {"smiles": "CC(C)NC(=O)COc1cccc(-c2nc(Nc3ccc4[nH]ncc4c3)c3ccccc3n2)c1", "note": "[Belumosudil, 2-{3-[4-(1H-indazol-5-ylamino)-2-quinazolinyl]phenoxy}-N-(propan-2-yl) acetamide]", "values": [
      {"measurement": "UGT1A9 inhibition", "setting": "UGT1A9", "result": "inhibitor"},
      {"measurement": "increase in AUC with high-fat and high-calorie meal vs fasted", "setting": "[1]; single dose", "result": 2, "unit": "times"},
      {"measurement": "increase in Cmax with high-fat and high-calorie meal vs fasted", "setting": "[1]; single dose", "result": 2.2, "unit": "times"},
      {"measurement": "radioactivity recovered in feces", "setting": "[1]; [12]", "result": 85, "unit": "%"},
      {"measurement": "radioactivity recovered in urine", "setting": "[1]; [12]", "result": "less than 5%"},
      {"measurement": "recovered in feces as unchanged", "setting": "[1]; [12]", "result": 30, "unit": "%"},
      {"measurement": "dose with increased pre-or post-implantation loss and decreased number of viable embryos", "setting": "rats [2]; female rats, treated or mated with treated males", "result": 275, "unit": "mg/kg/day"},
      {"measurement": "dose with abnormal sperm findings and testes/epididymis organ changes", "setting": "rats [2]; male rats", "result": 275, "unit": "mg/kg/day"},
      {"measurement": "dose with reduced fertility", "setting": "rats [2]; treated males or females", "result": 275, "unit": "mg/kg/day"},
      {"measurement": "genotoxicity", "setting": "[3]", "result": "not genotoxic"},
      {"measurement": "solubility", "setting": "pH-dependent solubility; pH 1.08, simulated gastric fluid", "result": 11, "unit": "µg/mL"},
      {"measurement": "solubility", "setting": "pH-dependent solubility; pH 1.6, simulated gastric fluid", "result": 1640, "unit": "µg/mL"},
      {"measurement": "solubility", "setting": "pH-dependent solubility; pH 6.5, aqueous buffer", "result": 3, "unit": "µg/mL"},
      {"measurement": "solubility", "setting": "pH-dependent solubility; simulated gastric fluid, pH 2.0", "result": 1430, "unit": "µg/mL"},
      {"measurement": "CYP2D6 inhibition", "setting": "CYP2D6 [4]", "result": "inhibitor"},
      {"measurement": "maternal exposures (AUC) with adverse developmental outcomes, times human exposure at recommended dose", "setting": "pregnant rabbits", "result": "≥ 0.07", "unit": "times"},
      {"measurement": "OATPIB1 inhibition", "setting": "OATPIB1", "result": "inhibits"},
      {"measurement": "share of belumosudil metabolism", "setting": "CYP2C19", "result": "< 5", "unit": "%"},
      {"measurement": "dose with decreased follicular development in ovaries", "setting": "rats [5]", "result": 275, "unit": "mg/kg/day"},
      {"measurement": "P-gp substrate", "setting": "P-gp [6]", "result": "substrate"},
      {"measurement": "share of belumosudil metabolism", "setting": "CYP2C8", "result": 14.2, "unit": "%"},
      {"measurement": "share of belumosudil metabolism", "setting": "CYP3A4", "result": 41.9, "unit": "%"},
      {"measurement": "P-gp inhibition", "setting": "P-gp [7]", "result": "inhibits"},
      {"measurement": "treatment-emergent AEs (TEAEs) reported", "setting": "healthy male subjects; Periods 1, 2, and 4", "result": 33},
      {"measurement": "AEs considered possibly related to belumosudil", "setting": "healthy male subjects; all mild: abdominal distension, hot flush, fatigue", "result": "Three"},
      {"measurement": "serious AE (SAE)", "setting": "healthy male subjects; ankle fracture after belumosudil+itraconazole, considered unrelated", "result": "One"},
      {"measurement": "subjects reporting gastrointestinal disorders", "setting": "healthy male subjects; belumosudil alone", "result": 3, "unit": "subjects"},
      {"measurement": "subjects reporting gastrointestinal disorders", "setting": "healthy male subjects; belumosudil+itraconazole", "result": 5, "unit": "subjects"},
      {"measurement": "deaths or AEs leading to subject withdrawal", "setting": "healthy male subjects; in vivo", "result": "no deaths or AEs leading to subject withdrawal"},
      {"measurement": "safety profile", "setting": "healthy male subjects; with and without perpetrator compounds", "result": "unremarkable; also recorded: safe, and no notable adverse events were reported"},
      {"measurement": "dose with spermatozoa degeneration", "setting": "dogs", "result": 35, "unit": "mg/kg/day"},
      {"measurement": "share of belumosudil metabolism", "setting": "CYP2D6 [8]", "result": 21.7, "unit": "%"},
      {"measurement": "CYP1A2 inhibition", "setting": "CYP1A2 [9]", "result": "inhibitor"},
      {"measurement": "solubility", "setting": "[10]; pH 2.7, aqueous buffer", "result": "> 100", "unit": "µg/mL"},
      {"measurement": "solubility", "setting": "[10]; pH 6.5, aqueous buffer", "result": "~4", "unit": "µg/mL"},
      {"measurement": "solubility", "setting": "[10]; pH 7.4, aqueous buffer", "result": "~3", "unit": "µg/mL"},
      {"measurement": "share of belumosudil metabolism", "setting": "CYP1A2 [11]", "result": "< 5", "unit": "%"}
    ]}
  ]
}
